Assay results reported in patent publication US7427488B2, “Purified and isolated platelet calcium channel nucleic acids and polypeptides and therapeutic and screening methods using same” (The University of North Carolina at Chapel Hill, priority 2000, dated 2008).

Experiments:
Assay type in all cases: cell-based, human
[1] = tested on: Annexin-V (phosphatidylserine) on platelet surface; experiment: Cell surface markers of platelet activation by flow cytometry: Annexin V binding; conditions: thrombin-activated platelets
Experimental: (§1) Human blood was collected in acid-citrate-dextrose (ACD, 85 mM trisodium citrate, 70 mM citric acid, 111 mM dextrose). Platelet rich plasma (PRP) was prepared by centrifugation of anticoagulated blood at 25° C. for 8 minutes at 200×g. Platelets were separated from plasma via gel filtration by applying the PRP to a 2.7×10 cm SEPHAROSE™ CL4B column (Amersham Biosciences Corp., Piscataway, N.J., United States of America) equilibrated with modified Tyrode's buffer (145 mM NaCl, 4 mM KCl, 1 mM MgSO4, 6 mM glucose, 10 mM Na-HEPES). Gel filtered platelets were collected and adjusted to a concentration of about 200×10^6 platelets/ml.
(§2) Platelets were stained for cell surface activation markers according to “Flow Cytometric Analysis of Platelets”. Monoclonal Antibodies Source Book. Vol. Section 2.19 (Becton, Dickinson And Co., Franklin Lakes, N.J., United States of America). Briefly, after treatment with agonists or antagonists as above, cells were activated with 0.167 units/ml thrombin (concentration chosen based on [Ca^2+ ]i studies) for 1 minute in the presence of 1 μM CaCl2, and then stained with the combination of CD61 PerCP and Annexin V FITC, or PAC-1 FITC, CD61 PerCP, and CD62 PE for 15 minutes at room temperature in the dark. […] Cells were analyzed on a FACSCAN™ flow cytometer. Mean cell fluorescence (MCF) was compared to control platelets (thrombin only) for each experimental condition. […]

[2] = tested on: gel-filtered platelets; experiment: Platelet aggregation (Chrono-log aggregometer); conditions: 50 nM nitrendipine or 5 μM Bay K(+); various concentrations of thrombin
Experimental: as §1
Gel-filtered platelets at about 200×10^6/ml were incubated for 2 hours with 1:200 MA3-920, 50 nM nitrendipine, 5 μM Bay K(−), or 5 μM Bay K(+). […] Results were analyzed with the AGGROLINK® software (Chrono-log Corp.).

[3] = tested on: platelet VDCC (thrombin-activated platelets); experiment: Flow cytometric analysis of [Ca2+]i in thrombin-activated platelets; conditions: for effect on [Ca2+]i (in words): thrombin-activated platelets
Experimental: The conduction of calcium by the VDCC is measured in vitro by measuring changes in cytoplasmic free (ionized) calcium concentrations. Cytoplasmic calcium concentrations are measured by performing flow cytometric analysis with the calcium indicators fluo-3 and fura red as detailed by Novak & Rabinovitch, 1994. Briefly, platelets in whole blood, platelet rich plasma or biological buffers are incubated with esters of fluo-3 and fura red, and then aspirated into the flow cytometric instrument for measurement of calcium-dependent fluorescent changes. Cytoplasmic calcium concentrations are calculated from the ratio or fluo-3 and fura red relative fluorescence intensities. Experiments are performed with increasing doses of VDCC inhibitors with platelets that are in the resting state and subjected to different concentrations of activation agonists and VDCC antagonists and agonists.
as §1
PRP (prepared as above) was incubated with 5 μM Fura 2-AM and 5 μM Fluo 3-AM for 20 minutes at 37° C. […] Thrombin was then added to a final concentration of 0.0167, 0.05, 0.167 or 0.5 units/ml and mean cell fluorescence (MCF) of Fura 2 and Fluo 3 was measured at 1 minute on a FACSCAN™ (BD Biosciences, San Jose, Calif., United States of America) flow cytometer as per Novak & Rabinovitch, 1994. The ratio of fluo 3 to fura 2 MCF was calculated and compared to controls for each experimental condition.

[4] = tested on: PAC1 (activated GPIIb/IIIa) on platelet surface; experiment: Cell surface markers of platelet activation by flow cytometry: PAC1; conditions: thrombin-activated platelets
Experimental: as §1, §2

[5] = tested on: CD62 (PADGEM; P-selectin) on platelet surface; experiment: Cell surface markers of platelet activation by flow cytometry: CD62; conditions: thrombin-activated platelets
Experimental: as §1, §2

[6] = tested on: platelet surface activation markers; experiment: Cell surface markers of platelet activation, overall statement; conditions: Annexin V, PAC1, CD62
Experimental: as §1, §2

Row | Compound | reduction (decrease) in annexin V binding / PS exposure [1] [%] | effect on (the rate of) platelet aggregation (in words) [2] | [Ca2+]i ([3]; 5 μM, at one minute, thrombin 0.0167 to 0.5 units/ml (FIG. 8)) | effect on [Ca2+]i (in words) [3] | increase in annexin V binding [1] [%] | decrease in PAC1 [4] [%] | decrease in CD62 [5] [%] | effect on platelet surface activation markers (in words) [6]
1 | CCOC(=O)C1=C(C)NC(C)=C(C(=O)OC)C1c1cccc([N+](=O)[O-])c1 (stereo not shown) [Nitrendipine, nitrendipine] | 22 | no effect | – | – | – | – | – | –
2 | COC(=O)C1=C(C)NC(C)=C([N+](=O)[O-])[C@H]1c1ccccc1C(F)(F)F [Bay K (−)] | – | – | increase | trend towards increased | 56 | 9 | 4 | –
3 | COC(=O)C1=C(C)NC(C)=C([N+](=O)[O-])[C@@H]1c1ccccc1C(F)(F)F [Bay K (+)] | – | no significant effect | – | no significant effect | – | – | – | no significant effect
